Source: US7563467B2, “Use of an Opuntia ficus-indica extract and compounds isolated therefrom for protecting nerve cells” (Korea Institute of Science and Technology, priority 2001, dated 2009)
≈ marks a conversion by molar mass, not a printed value. Entries after “also recorded” stand apart in the source; their conditions may differ. Marks after values point to notes of the source that are not given here.

Legend:
[1] = DPPH radical scavenging activity (electron donating ability); conditions: for DPPH radical scavenging activity (IC50): isolated compounds
[2] = Superoxide anion radical scavenging activity (xanthine/xanthine oxidase, NBT); conditions: for Superoxide anion radical scavenging activity (IC50): isolated compounds
[3] = system: primary cultured rat cerebrocortical neurons; experiment: Inhibition of hydrogen peroxide-induced neurotoxicity (LDH release); assay type: cell-based, Sprague-Dawley rat; conditions: for IC50: Cerebrocortical neuron
Method: (§1) Namely, the cerebral cortices of Sprague-Dawley rat embryos at 16-18 days of gestation were isolated, and meninges […] removed therefrom using a dissecting microscope. The tissue thus obtained was separated into single cells by trituration using a Pasteur pipette in a medium (MEM, Gibco BRL) containing 25 mM glucose, 5% FBS, 5% horse serum and 2 mM L-glutamine. […] A portion of the culture solution was replaced with a fresh culture media twice per week, and cultures were treated with 10 μM cytosine arabinoside for 24 to 72 hours at day 7 to 9 after planting to inhibit the growth of non-neuronal cells. The cultured cells at day 10 to 14 after planting were used in experiments. […] Data were calculated as percentages of the control LDH activity in the culture medium exposed to the respective oxidative insult in the absence of test principles. The inhibitory activity of a test sample for the oxidative nerve cell damage was calculated from the amount of released LDH relative to that of an unchanged control.

[4] = system: primary cultured rat cerebrocortical neurons; experiment: Inhibition of xanthine/xanthine oxidase-induced neurotoxicity (LDH release); assay type: cell-based, Sprague-Dawley rat; conditions: for IC50: Cerebrocortical neuron, isolated compounds, rat cerebrocortical neurons, LDH
Method: as §1

[5] = system: rat model of transient focal cerebral ischemic damage; experiment: Neurological score after middle cerebral artery occlusion; conditions: for Neurological score: 10 point means normal, average ± standard error
[6] = system: cultured rat cerebral hippocampus cells and cortex cells; experiment: Inhibition of growth factor withdrawal-induced neurotoxicity (LDH release); assay type: cell-based, SD rat
Method: The hippocampus and cortex were extracted from the cerebral tissue of 17-day old fetus of a pregnant SD rat using a microscope. The extracted hippocampus and cortex were each separated into discrete single cells using a pipette, and the cells obtained therefrom by centrifuging were inoculated into a 96-well plate coated with poly-L-lysine. […] After 72 hours incubation, the medium was replaced with the same medium but lacking glutamate, and the cells were further incubated. […] The cultured cells prepared in Reference Example 6 were cultured in […] containing 2% B27 supplementary nutrient, and then, the culture solution was replaced with the same […] but lacking B27 supplementary nutrient to induce cell death caused by undernutrition. After 24 hours, the amount of LDH released by cell necrosis was measured using an LDH measuring kit (Boehringer Mannheim) to quantify the extent of cell death.

[7] = system: cultured rat cerebral hippocampus cells and cortex cells; experiment: Inhibition of NMDA-induced neurotoxicity (LDH release); assay type: cell-based, SD rat; conditions: for inhibition at 9 µg/mL / inhibition at 30 µg/mL: Rattus norvegicus, 100 μM NMDA; for inhibition at 9 µg/mL: 9 μg/Ml; for inhibition at 30 µg/mL: 30 μg/Ml
Method: The hippocampus and cortex were extracted from the cerebral tissue of 17-day old fetus of a pregnant SD rat using a microscope. The extracted hippocampus and cortex were each separated into discrete single cells using a pipette, and the cells obtained therefrom by centrifuging were inoculated into a 96-well plate coated with poly-L-lysine. […] After 72 hours incubation, the medium was replaced with the same medium but lacking glutamate, and the cells were further incubated. […] The cultured cells prepared in Reference Example 6 were treated with 100 μM NMDA (Sigma) for 2 hours to induce cerebral cell damage, with or without the presence of a fixed amount of a test sample. After 24 hours, the amount of LDH released into the culture solution was measured using an LDH measuring kit (Boehringer Mannheim).

[8] = system: rat model of transient focal cerebral ischemic damage; experiment: Transient focal cerebral ischemia (middle cerebral artery occlusion and reperfusion), TTC infarction volume and swelling; assay type: in vivo, Sprague-Dawley rat; conditions: one day after occlusion; for Corrected total infarction volume: corrected for swelling; for Corrected total infarction volume / Swelling ratio: rat MCAO, 10 mg/kg intraperitoneally; for Infarction volume, cerebral cortex / Infarction volume, corpus striatum / Infarction volume, total: rat MCAO 120 min and reperfusion, 10 mg/kg intraperitoneally about 30 min after ischemia
[9] = isolated compounds, rat cerebrocortical neurons, LDH
[10] = 30 min after occlusion of middle cerebral artery
[11] = 24 hour after occlusion of middle cerebral artery, 10 mg/kg intraperitoneally

DPPH radical scavenging activity (IC50) [1]	Superoxide anion radical scavenging activity (IC50) [2]	Compound	Inhibition of hydrogen peroxide-induced neurotoxicity (in words) [3]	IC50 [3, 9]	Inhibition of xanthine/xanthine oxidase-induced neurotoxicity (in words) [4]	IC50 [4]	Neurological score [5, 10]	Neurological score [5, 11]	DPPH radical scavenging activity (in words) [1]	Superoxide anion radical scavenging activity (in words) [2]	Inhibition of NMDA-induced neurotoxicity (in words) [7]	inhibition at 9 µg/mL [7]	inhibition at 30 µg/mL [7]	Corrected total infarction volume [8]	Infarction volume, cerebral cortex [8]	Infarction volume, corpus striatum [8]	Infarction volume, total [8]	Swelling ratio [8]	also measured
>50 µg/mL	>50 µg/mL	O=c1c(O)c(-c2ccc(O)cc2)oc2cc(O)cc(O)c12 [Kaempferol, kaempferol]	strongly inhibit	29.7 µg/mL (≈ 104 µM)	strongly inhibit	24.9 µg/mL (≈ 87 µM)	–	–	–	–	–	–	–	–	–	–	–	–	–
3.76 µg/mL	4.77 µg/mL	COc1c(-c2ccc(O)c(O)c2)oc2cc(O)cc(O)c2c1=O [Quercetin 3-methyl ether, quercetin 3-methyl ether]	strongly inhibit; also recorded: highest inhibitory activity	0.6 µg/mL (≈ 1.9 µM)	strongly inhibit; also recorded: highest inhibitory activity	0.65 µg/mL (≈ 2.06 µM)	2.36 ± 0.15	4.81 ± 0.44	potent	potent	inhibit	21%	54%	81.6 ± 17.8* mm^3	81.2 ± 20.8* mm^3	28.9 ± 3.1 mm^3	110.1 ± 22.9* mm^3	5.8 ± 0.7 %	Neurological score compared with the control (in words) [5]: significantly higher; Inhibition of growth factor withdrawal-induced neurotoxicity (in words) [6]: inhibited; inhibition at 9 µg/mL ([6]; Rattus norvegicus, 9 μg/Ml): 31%; inhibition at 30 µg/mL ([6]; Rattus norvegicus, 30 μg/Ml): 86%
>50 µg/mL	>50 µg/mL	O=C1c2c(O)cc(O)cc2O[C@H](c2ccc(O)cc2)[C@H]1O [Dihydrokaempferol, dihydrokaempferol]	–	> 300 µg/mL	–	> 300 µg/mL	–	–	–	–	–	–	–	–	–	–	–	–	–
2.89 µg/mL	>50 µg/mL	O=c1c(O)c(-c2ccc(O)c(O)c2)oc2cc(O)cc(O)c12 [Quercetin, quercetin]	strongly inhibit	4.1 µg/mL (≈ 13.6 µM)	strongly inhibit	5.5 µg/mL (≈ 18.2 µM)	2.44 ± 0.24	4.56 ± 0.53	potent	–	–	–	–	110.6 ± 15.8 mm^3	130.5 ± 18.6 mm^3	30.1 ± 4.9 mm^3	161.1 ± 21.4 mm^3	9.1 ± 1.1%	–
4.49 µg/mL	2.48 µg/mL	O=C1c2c(O)cc(O)cc2O[C@H](c2ccc(O)c(O)c2)[C@H]1O [Dihydroquercetin, dihydroquercetin]	strongly inhibit	7.8 µg/mL (≈ 25.6 µM)	strongly inhibit	16.6 µg/mL (≈ 54.6 µM)	2.33 ± 0.16	3.00 ± 0.33	potent	potent	inhibit	33%	47%	130.7 ± 13.1 mm^3	169.4 ± 12.7 mm^3	30.1 ± 4.3 mm^3	199.5 ± 16.5 mm^3	11.9 ± 0.5%	–
>50 µg/mL	>50 µg/mL	COc1c(-c2ccc(O)cc2)oc2cc(O)cc(O)c2c1=O [Kaempferol 3-methyl ether, kaempferol 3-methyl ether]	–	–	–	–	–	–	–	–	–	–	–	–	–	–	–	–	Inhibition of hydrogen peroxide-induced neurotoxicity (IC50) [3, 9]: >300 µg/mL
